The structures appear in SMILES notation. Peptide text beside a SMILES is read from it.

The text below walks through data of patent US10881709B2, “Immune system modulators and compositions” (Canimguide Therapeutics AB, priority 2015, dated 2021).

Series [1] deals with spontaneous canine tumours. Nature of the series: Intra-tumoral treatment of spontaneous tumours in dogs. It counts as in vivo. As to conditions: single dog. As to the method: Seventeen spontaneous canine tumours, of variable histology have been treated by intra-tumoral injection of 40 nmol P28R in 200 microliters. The tumours were resected 3-5 days later, immediately snap frozen and stored at −80° C. until further processed. A detailed description of treatment of the tumors is provided below (see Examples 50-60). In these examples, 15 control dogs with untreated tumours (5 snap frozen and 10 FFPE) were also examined.
A summary is provided for 7 dogs with treated mammary tumours and 5 untreated control dogs (see FIG. 88). Tumour cells (881 for treated dogs, 882 for untreated control dogs) and lymphocytes (883 for both treated dogs and untreated control dogs) were counted at 400× magnification. The ratio between these cells was used as a measure on the inflammatory infiltrate (FIG. 88). The reproducibility and the influence of tumour heterogeneity on cell counts were evaluated by counting several areas from each tumour section.
The therapeutic efficacy was evaluated as the presence of an inflammatory infiltrate and the occurrence of tumour cell regressive changes. As migration of effector cells close to tumour cells is one important, but often inhibited function of these cells, the effect of P28R was specifically evaluated as the presence of inflammatory cells infiltrating into the tumour cell areas close to the tumour cells. […]

Series [2] can be described thus: Toxicological study and observation of side effects in dogs. Particulars: 200 nM in 1 mL subcutaneously and 40 nM in 200 microliters intra-tumourally. It counts as in vivo, dog. How it is done:
So far nine dogs have been treated with P28R in accordance with some embodiments herein, 4 in the toxicological study (CiToxLab, Denmark) with 200 nM administered in 1 mL subcutaneously and 5 dogs in the treatment study reported here with 40 nM in 200 microliters intra tumourally.
More than 20 dogs have been treated with P28R, including 4 in the toxicological study (CiToxLab®, Denmark) with 200 nM administered in 1 mL subcutaneously and 17 dogs in the treatment study reported here with 40 nM in 200 microliters intra-tumourally.

Series [3] is described as follows: Toxicological aspects of P28R in dogs (systemic side effects). It counts as in vivo, dog. Particulars: 21 dogs: 4 with 200 nM in 1 mL subcutaneously, 17 with 40 nM in 200 microliters intra-tumourally. How it is done:
Twenty-one dogs have been treated with P28R, 4 in the toxicological study (CiToxLab®, Denmark) with 200 nM administered in 1 mL subcutaneously and 17 dogs in the treatment study reported here with 40 nM in 200 microliters intra-tumourally.

Consider `CC(C)C[C@H](NC(=O)[C@H](CO)NC(=O)[C@H](CC(C)C)NC(=O)[C@H](CCCCN)NC(=O)[C@@H](NC(=O)[C@H](Cc1ccccc1)NC(=O)[C@H](Cc1ccccc1)NC(=O)[C@@H](NC(=O)[C@H](CC(=O)O)NC(=O)[C@H](CC(C)C)NC(=O)[C@H](CCCCN)NC(=O)[C@@H](N)CCCCN)[C@@H](C)O)C(C)C)C(=O)N[C@@H](Cc1ccccc1)C(=O)N[C@H](C(=O)N[C@@H](CCC(=O)O)C(=O)N[C@@H](CCCNC(=N)N)C(=O)O)[C@@H](C)O` [P28R] (H-KKLDTFFVKLSLFTER-OH; N-terminus and C-terminus assumed), for which the “clinical observations after injection until resection” value in series [1] is given as “No systemic adverse events were observed”. In addition, the systemic side effects entry in series [2] and in series [3] was “None of these dogs showed any systemic side effects” in each case.
